IC50 and Kd data for four compounds are collected here from patent US20240287138A1, “CYCLIC PEPTIDES FOR INHIBITING TNF RECEPTOR 1 ACTIVITY” (Merck Sharp & Dohme LLC, priority 2023, published 2024).

pIC50, pKd: −log10 of the molar value. Numbered stars: 1 amine (or outer) side, 2 acyl side, 3 side chain; on linkers, the order of the positions; unused ones are H or OH. Square brackets hold non-standard residues; d marks the D form. Peptide text beside a SMILES is read from it. * marks the point of attachment. Trp(βS-Me,7-OMe) = COc1cccc2c([C@H](C)[C@H](N)C(=O)O)c[nH]c12; Phe(2-F,4-COOH) = N[C@@H](Cc1ccc(C(=O)O)cc1F)C(=O)O; Trp(7-CN) = N#Cc1cccc2c(C[C@H](N)C(=O)O)c[nH]c12; Trp(7-Cl) = N[C@@H](Cc1c[nH]c2c(Cl)cccc12)C(=O)O; Phe(4-CONH2) = NC(=O)c1ccc(C[C@H](N)C(=O)O)cc1; Phe(4-COOH) = N[C@@H](Cc1ccc(C(=O)O)cc1)C(=O)O; X60 = NC(=O)[C@H](O)[C@H](N[*:1])C(=O)[*:2]; X18 = O=C([C@@H]1C=C[C@H](N[*:1])C1)[*:2]; Pip(5R-OH) = O=C(O)[C@@H]1CC[C@@H](O)CN1; X1 = O=C([C@@H]1CC[C@H](N[*:1])C1)[*:2]; Pip(4-aza) = O=C(O)[C@@H]1CNCCN1; 4Pal = N[C@@H](Cc1ccncc1)C(=O)O; NMeE = CN[C@@H](CCC(=O)O)C(=O)O; dHyp = O=C(O)[C@H]1C[C@H](O)CN1; αMeS = C[C@](N)(CO)C(=O)O; Carboxymethyl = O=C(O)C*; Nle = CCCC[C@H](N)C(=O)O; Sar = CNCC(=O)O

The target of assay [1] is T1, TNFα-induced NF-κB signal transduction pathway (TNFR1 signaling) in THP-1 cells (Homo sapiens, UniProt P19438).
T1 sequence (P19438 30-455): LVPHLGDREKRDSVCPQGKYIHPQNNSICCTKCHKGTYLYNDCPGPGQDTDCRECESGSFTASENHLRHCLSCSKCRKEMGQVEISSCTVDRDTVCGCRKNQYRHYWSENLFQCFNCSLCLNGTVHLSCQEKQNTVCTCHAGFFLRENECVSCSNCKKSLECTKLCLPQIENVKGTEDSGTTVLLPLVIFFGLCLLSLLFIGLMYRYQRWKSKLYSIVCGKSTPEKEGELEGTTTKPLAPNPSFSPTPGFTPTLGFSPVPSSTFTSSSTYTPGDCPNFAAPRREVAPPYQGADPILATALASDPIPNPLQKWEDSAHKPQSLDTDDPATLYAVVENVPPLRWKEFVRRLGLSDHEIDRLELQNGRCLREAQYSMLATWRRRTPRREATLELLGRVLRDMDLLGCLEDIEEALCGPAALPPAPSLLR
The assay is described as follows: THP-1 Lucia NF-κB reporter cell assay, inhibition of TNFα-induced NF-κB signaling. Type of assay: cell-based. The conditions noted are these: THP-1 NF-κB Lucia reporter cells, 10 ng/mL TNFα, 16-18 h, secreted luciferase; read-out: THP-1 IC50. Put shortly: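 Macrocyclic peptides were preincubated 1 h at 37 °C with THP-1 NF-κB-Lucia reporter cells (20,000 cells/well) in antibiotic-free RPMI 1640/10% FBS, then stimulated with 10 ng/mL human TNFα overnight (16-18 h). Secreted luciferase in supernatant was read by luminescence; IC50 from 4-parameter logistic fits.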

Assay [2] has as its target T2, human soluble TNFR1 (sTNFR1) (Homo sapiens, UniProt P19438).
T2 construct: made in house; host or cells: Sf21 (baculovirus)
T2 sequence (P19438 with tags, fused parts or gaps): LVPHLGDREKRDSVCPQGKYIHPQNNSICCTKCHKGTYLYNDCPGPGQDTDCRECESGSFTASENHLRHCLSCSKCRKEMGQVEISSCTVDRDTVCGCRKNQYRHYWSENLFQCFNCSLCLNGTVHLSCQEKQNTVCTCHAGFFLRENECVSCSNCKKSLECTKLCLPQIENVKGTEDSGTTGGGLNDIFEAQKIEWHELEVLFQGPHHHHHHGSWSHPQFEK
The assay can be described thus: Human sTNFR1-peptide displacement assay (LanthaScreen Eu TR-FRET binding assay). As to the method: A. Procedure for Human sTNFR1-Peptide Displacement Assay
The affinity was determined using LanthaScreen Eu-based time-resolved fluorescence resonance energy transfer (TR-FRET)-based binding assay.
A TR-FRET assay measuring the displacement of biotinylated peptide SEQ ID NO. 1 from human soluble TNFR1 (sTNFR1) in a pre-formed complex by a macrocyclic peptide yields the affinity (Kd^app) of the cyclic peptide for sTNFR1. The reagents for the assay include: the C′-terminally 6His-tagged sTNFR1 (residues 1-211) protein purified from a Sf21 baculovirus expression system, the biotin-tagged B0372 peptide described in section “Preparation of Final Compounds”, part E, the LanthaScreen™ anti-His Tag Europium donor (Life Technologies Corporation (San Diego, CA), cat. #PV5597), and a streptavidin-conjugate Alexa Fluor™ 647 acceptor (Invitrogen (Waltham, MA), cat. #S32357). Time-resolved TR-FRET is achieved when sTNFR1 is bound to biotinylated peptide SEQ ID NO. 1 through coupling of the donor and acceptor FRET pair.
100 nM biotinylated peptide SEQ ID NO. […] 100 nM biotinylated peptide SEQ ID NO. 1 was chosen as it reflects the ˜Kd for this complex. After 30 min at ambient temperature, each test peptide (2 mM stock in DMSO) is titrated in a 20 point, ˜3-fold discrete dose-response using an acoustic-dispense liquid handler. Specifically, 80 nL of peptide/DMSO is transferred into a ProxiPlate-384 Plus 384-well assay plate (PerkinElmer, cat. #6008289). To this plate, 8 μL of the previously formed sTNFR 1-biotinylated peptide SEQ ID NO. 1 complex is added and allowed to reach binding equilibrium with the test peptide at ambient temperature for 90 min.
The TR-FRET signal is measured with the following EnVision® settings: excitation laser at 337 nm; emission1=615 nm, emission2=665 nm, LANCE/DELFIA dichroic mirror, delay time=[…]. The signal of each well is determined as the ratio of the emission at 665 nm to that at 615 nm. Percent displacement is determined by normalization to control wells containing DMSO (0%) or a saturating concentration of a displaceable peptide (100%). The %-effect as a function of peptide concentration is fit to a five-parameter logistic fit based on the Morrison equation to account for tight binding kinetics.
(In general: Time-resolved FRET reads energy transfer from a long-lived donor to a nearby acceptor.)

A word on the pIC50: it is −log10 of the IC50, conventionally taken in molar units. The pKd is the negative decadic logarithm of the Kd, by convention in mol/L. `CCCC[C@@H]1NC(=O)[C@@H]2CC[C@@H](C2)NC(=O)[C@H]([C@@H](C)c2c[nH]c3c(OC)cccc23)NC(=O)CN(C)C(=O)[C@H](Cc2ccc(C(=O)O)cc2F)NC(=O)[C@H](Cc2ccc(C(=O)O)cc2)NC(=O)[C@](C)(CO)NC(=O)[C@H](Cc2c[nH]c3c(Cl)cccc23)NC(=O)[C@H](Cc2ccncc2)NC(=O)[C@H](CC(N)=O)NC(=O)[C@H](CCC(=O)O)N(C)C(=O)[C@H](Cc2c[nH]c3ccccc23)NC(=O)[C@@H]2CNCCN2C(=O)[C@H](Cc2ccncc2)NC1=O` [SEQ ID NO. 107] (cyclo([4Pal][Trp(7-Cl)][αMeS][Phe(4-COOH)][Phe(2-F,4-COOH)][Sar][Trp(βS-Me,7-OMe)][X1][Nle][4Pal][Pip(4-aza)]W[NMeE]N)): in assay [1], the pIC50 was 9.00. In assay [2], this compound gave a pKd of 9.52.

In the case of `CCCC[C@@H]1NC(=O)[C@@H]2CC[C@@H](C2)NC(=O)[C@H]([C@@H](C)c2c[nH]c3c(OC)cccc23)NC(=O)CN(C)C(=O)[C@H](Cc2ccc(OCC(=O)O)cc2)NC(=O)[C@H](Cc2ccc(C(N)=O)cc2)NC(=O)[C@](C)(CO)NC(=O)[C@H](Cc2c[nH]c3c(C#N)cccc23)NC(=O)[C@H](Cc2ccc(OCC(=O)O)cc2)NC(=O)[C@H](CC(N)=O)NC(=O)[C@H]2C[C@H](O)CN2C(=O)[C@H](Cc2c[nH]c3ccccc23)NC(=O)[C@@H]2CC[C@@H](O)CN2C(=O)[C@H](Cc2ccncc2)NC1=O` [SEQ ID NO. 285] (cyclo([4Pal][Pip(5R-OH)]W[dHyp]NY(Carboxymethyl)[Trp(7-CN)][αMeS][Phe(4-CONH2)]Y(Carboxymethyl)[Sar][Trp(βS-Me,7-OMe)][X1][Nle])), the pIC50 in assay [1] is 9.22. Besides, the pKd in assay [2] was 10.40.

`CCCC[C@@H]1NC(=O)[C@@H]2CC[C@@H](C2)NC(=O)[C@H]([C@@H](C)c2c[nH]c3c(OC)cccc23)NC(=O)CN(C)C(=O)[C@H](Cc2ccc(C(=O)O)cc2)NC(=O)[C@H](Cc2ccc(C(N)=O)cc2)NC(=O)[C@](C)(CO)NC(=O)[C@H](Cc2c[nH]c3c(C#N)cccc23)NC(=O)[C@H](Cc2ccncc2)NC(=O)[C@H]([C@@H](O)C(N)=O)NC(=O)[C@H]2C[C@H](O)CN2C(=O)[C@H](Cc2c[nH]c3ccccc23)NC(=O)[C@@H]2CC[C@@H](O)CN2C(=O)[C@H](Cc2ccncc2)NC1=O` [SEQ ID NO. 78] (cyclo([4Pal][Trp(7-CN)][αMeS][Phe(4-CONH2)][Phe(4-COOH)][Sar][Trp(βS-Me,7-OMe)][X1][Nle][4Pal][Pip(5R-OH)]W[dHyp][X60])): in assay [1], the pIC50 was 9.15. The compound also showed a pKd in assay [2] of 10.30.

With `CCCC[C@@H]1NC(=O)[C@@H]2C=C[C@@H](C2)NC(=O)[C@H]([C@@H](C)c2c[nH]c3c(OC)cccc23)NC(=O)CN(C)C(=O)[C@H](Cc2ccc(O)cc2)NC(=O)[C@H](Cc2ccc(C(=O)O)cc2)NC(=O)[C@](C)(CO)NC(=O)[C@H](Cc2c[nH]c3c(Cl)cccc23)NC(=O)[C@H](Cc2ccncc2)NC(=O)[C@H](CC(N)=O)NC(=O)[C@H](CCC(=O)O)N(C)C(=O)[C@H](Cc2c[nH]c3ccccc23)NC(=O)[C@@H]2CNCCN2C(=O)[C@H](Cc2ccncc2)NC1=O` [SEQ ID NO. 182] (cyclo([4Pal][Trp(7-Cl)][αMeS][Phe(4-COOH)]Y[Sar][Trp(βS-Me,7-OMe)][X18][Nle][4Pal][Pip(4-aza)]W[NMeE]N)), the pIC50 in assay [1] was 9.05. The compound also had a pKd in assay [2] of 9.70.
